# Test results reported in patent publication US20140128399A1, “METHODS AND COMPOSITIONS FOR TREATING URINARY TRACT INFECTIONS USING AGENTS THAT MIMIC OR ELEVATE CYCLIC AMP” (DUKE UNIVERSITY, priority 2007, published 2014).
# Tests used:
# [1] = test system: E. coli ORN103(pSH2)-infected 5637 BECs; assay: Bacterial exocytosis assay; type: cell-based, human; conditions: inhibitors added during gentamicin incubation; H89 10 μM, NiCl2
# Procedure: In this assay, 5637 BECs were infected with bacteria as above. Infection continued for 60 min, and then the cells were washed with culture medium (including 100 μg/ml gentamicin and 100 mM methyl α-D-mannopyranoside (Sigma, St. Louis, Mo.)) for an additional 30 min. The cells were then washed twice and then allowed to incubate for 1-4 h with fresh culture medium containing 100 mM methyl α-D-mannopyranoside. At each time point, the culture medium and one wash of 100 μl of culture medium with methyl α-D-mannopyranoside were collected and pooled. The inhibitors H89 (10 μM) and NiCl2 ([…]) were added during the gentamicin incubation and left in the culture medium. All homogenates and pooled culture medium were cultured for colony counts. All exocytosis assays had n=12 wells of a 96-well plate.
# 5637 BECs = assay: β-hexosaminidase release assay; type: cell-based, human; conditions: for release of β-hexosaminidase from E. coli-infected BECs: E. coli ORN103(pSH2)-infected 5637 BECs, NiCl2 2 mM, H89 10 μM; for release of β-hexosaminidase into extracellular media: uninfected 5637 BECs, 1 hr, forskolin 100 μM, dibutyryl-cAMP 1 mM, calcium ionophore 1 μM
# [2] = test system: E. coli ORN103(pSH2) within 5637 BECs; assay: Intracellular bacteria survival assay (antibiotic protection); type: cell-based, human; conditions: NH4Cl 10 mM, 50 mM; Bafilomycin 1 μM
# Procedure: In this assay, 5637 BECs were infected with ORN103(pSH2) E. coli diluted in RPMI 1640 medium at a multiplicity of infection (MOI) of 100:1. Cells were centrifuged for 5 min at 600 g, and incubated for 60 min at 37° C. Next, the cells were incubated with 100 μg/ml of gentamicin (Invitrogen) in RPMI medium for 30 min, and then with 10 μg/ml gentamicin in RPMI medium. At each time point, the cells were washed using PBS, solubilized with 0.1% Triton X-100 in PBS and plated for colony counts.
# phosphodiesterases = conditions: read-out: IC50, non-specific inhibitor of phosphodiesterases; cited from earlier work
# [3] = test system: human bladder epithelial cells; assay: Intracellular cAMP enzyme immunoassay; type: cell-based
# Procedure: In this example, the effect of bacterial lipopolysccharide (LPS), a Toll-like Receptor 4 (TLR4) ligand, on intracellular levels of cAMP was assessed in human bladder epithelial cells (BECs). Methods are as described in Song et al. (2007) PLoS Pathog. 3(4):e60. BECs were seeded onto 6-well plates and grown overnight. The cells were treated with […] E. coli LPS for 6 h at 37° C., followed by washing four times with PBS to remove culture media, followed by an addition of […] of 0.1 M HCl. After a 10 min incubation, the cell lysate was centrifuged and the supernatant was used directly in the cAMP assay. Intracellular concentrations of cAMP were determined using a cAMP enzyme immunoassay kit (Sigma) according to the manufacturer's instructions.
# E. coli CI5 [4] = assay: In vivo bladder infection, 24-h-long infection, intravesicular forskolin; parameters: species or system mouse; conditions: Balb/c mice
# Procedure: (§1) In this procedure, 8-week-old female BALB/c mice were anesthetized with sodium pentobarbital and then inoculated transurethrally with 50 μl of either E. coli CI5 or a bacterial suspension (approximately 1.0×10^8 CFU) suspended in PBS. After 2 h, the bladders were removed aseptically. Then the bladders were either bisected and fixed with 2% paraformaldehyde plus 2% gluteraldehyde in PBS (for transmission electron microscopy) or frozen for immunofluorescence microscopy. For the 2-h-long infections with E. coli and S. enterica SL1344, BALB/c mice were infected as above. After 2 h, the mice were intraperitoneally injected with 100 μl PBS (with or without 10 mg/kg forskolin) and intravesicularly instilled, for 1 h, with 100 μg/ml gentamicin in PBS (with or without 100 μM forskolin). For the 24-h-long infections, BALB/c mice were infected. After 24 h, the mice were intravesicularly instilled with 50 μl of PBS (with or without 100 μM forskolin) for 1 h. The 100 μM forskolin in PBS was replaced by 100 μg/ml gentamicin in PBS for 30 min. The bladders were then removed aseptically and homogenized them in 0.1% Triton X-100 in PBS. Homogenate dilutions were plated for colony counts.
# [5] = test system: fusiform vesicles of mouse bladder BECs; assay: Immunofluorescence of bladder sections (Rab27b); type: in vivo; conditions: mouse bladders, antibodies to Rab27b, forskolin 100 μM 1 h
# Procedure: Balb/c mice were either infected with E. coli CI5 as above, or they were treated with either 100 μM forskolin or PBS for 1 h through a catheter. Frozen sections of these bladders were cut using standard methods. Each section was fixed in 100% ethanol for 20 min at −20° C., and blocked in PBS with 1% BSA for 1 h at 4° C. Sections were incubated overnight at 25° C. with primary antibodies to either Rab27b (Santa Cruz Biotechnology, Inc., Santa Cruz, Calif.) or UPIII (Santa Cruz Biotechnology), and washed. Sections were incubated for 1 h at room temperature with secondary antibodies, and washed. To visualize the nuclei, the sections were incubated with Hoechst-33258 for 5 min at room temperature and then washed. All dilutions and washes were with PBS and 1% BSA. Coverslips were viewed as described previously.
# [6] = test system: E. coli ORN103(pSH2) invasion into 5637 BECs; assay: Gentamicin protection assay, UPEC invasion; type: cell-based, human; conditions: dilution 1:10
# Procedure: (§2) A gentamicin protection assay, including 5637 BECs on 96-well plates (40,000 cells/well), was used to determine the effect of forskolin on UPEC invasion. In this example, the UPEC was either J96 or E. coli ORN103(pSH2). 50 μM forskolin was administered as a pretreatment for 15 min before infection or administered at the same time as the bacteria.
# [7] = test system: UPEC J96 invasion into 5637 BECs; assay: Gentamicin protection assay, UPEC invasion; type: cell-based, human; conditions: dilution 1:10
# Procedure: as §2
# UPEC strain CI5 = assay: In vivo gentamicin protection assay, UPEC colonization of the bladder; parameters: species or system mouse; conditions: IP Fsk/Cather Fsk, 1 hr treatment
# Procedure: An in vivo gentamicin protection assay was used to determine the effect of forskolin on UPEC colonization of the bladder. In this example, UPEC strain CI5 was injected into the bladder via catheter to initiate a urinary tract infection. After 2 hours of infection, the mice were re-catheterized, the urine was removed, and the bladder was treated with 100 uM forskolin in PBS for 1 hour. After the forskolin treatment, 100 ug/ml gentamicin in PBS was injected into the bladder via catheter for 30 minutes. The bladders were then removed, washed in sterile PBS, and homogenized. The homogenates were plated on LB agar for overnight colony counts at various dilutions. Control mice were treated with PBS alone instead of forskolin plus PBS. The top half of Table 3 represents the raw colony counts while the bottom half of Table 3 represents the calculated bladder load of UPEC strain C15 based on the dilutions.
# S. enterica SL1344 = assay: In vivo bladder infection, 2-h-long infection, intracellular bacterial CFU; parameters: species or system mouse; conditions: BALB/c mice, forskolin 2 h after infection, i.p. 10 mg/kg and by catheter 100 μM
# Procedure: as §1
# E. coli CI5 [8] = assay: as above; parameters: species or system mouse; conditions: BALB/c mice, forskolin 2 h after infection, i.p. 10 mg/kg and by catheter 100 μM
# Procedure: as §1
# IL-6 = IL-6 ELISA of urine; type: in vivo, mouse
# Procedure: In this assay, 8-week-old female C3H/HeJ mice were infected with E. coli CI5 as above. After 6 h, the mice were intraperitoneally injected with 100 μl of PBS, with or without 10 mg/kg forskolin. Urine was collected at 6 and 24 h after infection, using clean catch methods, and the samples were stored at −80° C. The concentration of IL-6 in the urine was determined using the mouse IL-6 ELISA kit (eBioscience, San Diego, Calif.) according to the manufacturer's protocol.
# E. coli CI5 [9] = assay: In vivo bladder infection with 3-d-long forskolin regimen; parameters: species or system mouse; conditions: C3H/HeJ mice, forskolin 10 mg/kg i.p. at 6, 24 and 48 h; at 72 h; P≦0.03
# Procedure: In this procedure, 8-week-old female C3H/HeJ mice were infected with E. coli CI5 as above. At 6, 24 and 48 h after infection, the mice were intraperitoneally injected with 100 μl PBS, with or without 10 mg/kg forskolin. At 72 h after infection, bladders were aseptically removed and plated for colony counts.
# bacteria = assay: Bacterial viability (data not shown)
# [10] = SH2, 50 μM forskolin at the same time as the bacteria
# [11] = SH2, 50 μM forskolin pretreatment 15 min before infection
# [12] = J96, 50 μM forskolin at the same time as the bacteria
# [13] = J96, 50 μM forskolin pretreatment 15 min before infection
compound,measurement,setting,value
O=S(=O)(NCCNC/C=C/c1ccc(Br)cc1)c1cccc2cnccc12 [H89],E. coli ORN103(pSH2) exocytosis into antibiotic-free medium,[1],reduced
same,release of β-hexosaminidase from E. coli-infected BECs,5637 BECs,regulatable
[Cl][Ni][Cl] [NiCl2],E. coli ORN103(pSH2) exocytosis into antibiotic-free medium,[1],reduced
same,release of β-hexosaminidase from E. coli-infected BECs,5637 BECs,regulatable
CO/C1=C\C(C)=C\[C@@H](C)[C@@H](O)[C@@H](C)C/C(C)=C/C=C/[C@H](OC)[C@@H]([C@@H](C)[C@@H](O)[C@H](C)[C@@]2(O)C[C@@H](O)[C@H](C)[C@@H](C(C)C)O2)OC1=O [Bafilomycin],E. coli ORN103(pSH2) persistence within 5637 BECs,[2],caused no improvement
"CC(C)Cn1c(=O)n(C)c(=O)c2[nH]cnc21 [IBMX, 3-Isobutyl-1-methylxanthine]",IC50,phosphodiesterases,2 to 50 µM
same,intracellular cAMP levels compared to untreated controls,[3],significantly increases
Cl.N [NH4Cl],E. coli ORN103(pSH2) persistence within 5637 BECs,[2],caused no improvement
CCCC(=O)Nc1ncnc2c1ncn2[C@@H]1O[C@@H]2COP(=O)(O)O[C@H]2[C@H]1OC(=O)CCC [dibutyryl-cAMP],release of β-hexosaminidase into extracellular media,5637 BECs,stimulated the BECs to release appreciable levels of β-hexosaminidase
"C[C@H](CCC(=O)O)C[C@H](C)C[C@H](C)C(=O)/C=C(\O)[C@H](C)C[C@H](C)C/C=C/[C@@H](C)[C@@H](O)[C@@H](C)[C@@H](O)C[C@@H]1CC[C@@](C)([C@H]2CC[C@@](C)([C@@H](C)O)O2)O1 [calcium ionophore, ionomycin]",release of β-hexosaminidase into extracellular media,5637 BECs,stimulated the BECs to release appreciable levels of β-hexosaminidase
C=C[C@@]1(C)CC(=O)[C@]2(O)[C@@]3(C)[C@@H](O)CCC(C)(C)[C@@H]3[C@H](O)[C@H](OC(C)=O)[C@@]2(C)O1 [forskolin],reduction in the number of E. coli CI5 within bladder compared to saline-treated controls,"E. coli CI5 [4]; intravesicular forskolin 100 μM 24 h after infection, P≦0.033",79.4%
same,mice harboring >10^5 bacteria in their bladders,"E. coli CI5 [4]; intravesicular forskolin 24 h after infection, control 33%, P≦0.01",4.1%
same,translocation of fusiform vesicles to the apical plasma membrane,[5],translocation of fusiform vesicles to the apical plasma membrane of mouse bladders was detected
same,"intracellular bacteria, Mean",[6]; [10],10575 colony counts
same,"intracellular bacteria, replicate 1",[6]; [10],10980 colony counts
same,"intracellular bacteria, replicate 2",[6]; [10],8260 colony counts
same,"intracellular bacteria, replicate 3",[6]; [10],14140 colony counts
same,"intracellular bacteria, replicate 4",[6]; [10],8920 colony counts
same,"intracellular bacteria, Mean",[6]; [11],9553 colony counts
same,"intracellular bacteria, replicate 1",[6]; [11],8860 colony counts
same,"intracellular bacteria, replicate 2",[6]; [11],9060 colony counts
same,"intracellular bacteria, replicate 3",[6]; [11],10740 colony counts
same,"intracellular bacteria, Mean",[7]; [12],545 colony counts
same,"intracellular bacteria, replicate 1",[7]; [12],800 colony counts
same,"intracellular bacteria, replicate 2",[7]; [12],640 colony counts
same,"intracellular bacteria, replicate 3",[7]; [12],460 colony counts
same,"intracellular bacteria, replicate 4",[7]; [12],280 colony counts
same,"intracellular bacteria, Mean",[7]; [13],535 colony counts
same,"intracellular bacteria, replicate 1",[7]; [13],720 colony counts
same,"intracellular bacteria, replicate 2",[7]; [13],140 colony counts
same,"intracellular bacteria, replicate 3",[7]; [13],200 colony counts
same,"intracellular bacteria, replicate 4",[7]; [13],1080 colony counts
same,release of β-hexosaminidase into extracellular media,5637 BECs,stimulated the BECs to release appreciable levels of β-hexosaminidase
same,"Percent Control (bladder load), Average",UPEC strain CI5,0.41%
same,"Percent Control (bladder load), mouse 1",UPEC strain CI5,0.45%
same,"Percent Control (bladder load), mouse 2",UPEC strain CI5,0.22%
same,"Percent Control (bladder load), mouse 3",UPEC strain CI5,0.56%
same,"raw colony counts of bladder homogenate, Average",UPEC strain CI5,83 colony counts
same,"calculated bladder load of UPEC strain CI5, Average",UPEC strain CI5; based on the dilutions,1653 colony counts
same,"calculated bladder load of UPEC strain CI5, mouse 1",UPEC strain CI5; based on the dilutions,1820 colony counts
same,"calculated bladder load of UPEC strain CI5, mouse 2",UPEC strain CI5; based on the dilutions,900 colony counts
same,"calculated bladder load of UPEC strain CI5, mouse 3",UPEC strain CI5; based on the dilutions,2240 colony counts
same,"raw colony counts of bladder homogenate, mouse 1",UPEC strain CI5; dilution 1:1,91 colony counts
same,"raw colony counts of bladder homogenate, mouse 2",UPEC strain CI5; dilution 1:1,45 colony counts
same,"raw colony counts of bladder homogenate, mouse 3",UPEC strain CI5; dilution 1:1,112 colony counts
same,effect on intracellular S. enterica SL1344,S. enterica SL1344,no effect
same,intracellular E. coli CI5 eliminated,E. coli CI5 [8],over 99%
same,decrease in urine IL-6,"IL-6; E. coli CI5-infected C3H/HeJ mice, 18 h after forskolin 10 mg/kg i.p., P≦0.0003",99.6%
same,IL-6 levels in uninfected mice,"IL-6; forskolin treatment alone, uninfected mice",did not alter IL-6 levels
same,decrease of average bacterial load within the bladders compared to control mice,E. coli CI5 [9],56%
same,effect on bacterial viability,bacteria,no effect
